From ChEMBL document CHEMBL1142867, “Antiviral activity of triazine analogues of 1-(S)-[3-hydroxy-2-(phosphonomethoxy)propyl]cytosine (cidofovir) and related compounds” (J Med Chem, 2007)
In brackets after ≈: the same amount, converted by molar mass.

Legend:
[1] = tested on: Punta Toro virus; type: functional, organism-based; settings: Vero
[2] = tested on: Yellow fever virus; type: functional, organism-based; settings: Vero
[3] = tested on: Hepatitis C virus; assay: Antiviral activity against HCV in Huh5-2 cells assessed as inhibition of HCV subgenomic replicon replication; type: functional, organism-based, Hepacivirus hominis; settings: Huh-5-2
[4] = Cytotoxicity against E6SM cells assessed as alteration in cell morphology; type: cell-based; settings: human
[5] = Cytotoxicity against HeLa cells assessed as alteration in cell morphology; type: cell-based; settings: human
[6] = Cytotoxicity against Vero cells assessed as alteration in cell morphology; type: cell-based; settings: chlorocebus sabaeus
[7] = Cytotoxicity against C3H cells assessed as alteration in cell morphology; type: cell-based; settings: mouse
[8] = Cytotoxicity against CEM cells assessed as reduction of cell growth; type: cell-based; settings: human, CEM (CCRF-CEM) cells
[9] = Cytotoxicity against Huh5-2 cells assessed as reduction of cell growth; type: cell-based, Huh-5-2; settings: human
[10] = tested on: Human alphaherpesvirus 1; type: functional, organism-based; settings: Human alphaherpesvirus 1, KOS, HEL
[11] = tested on: Human alphaherpesvirus 1; type: functional, organism-based; settings: Human alphaherpesvirus 1, KOS, HEL; remark: listed apart in the source
[12] = tested on: Human alphaherpesvirus 2; type: functional, organism-based; settings: Human alphaherpesvirus 2, Lyons, HEL
[13] = tested on: Human alphaherpesvirus 2; type: functional, organism-based; settings: Human alphaherpesvirus 2, G, HEL
[14] = tested on: Human alphaherpesvirus 3; assay: Antiviral activity against VZV OKA in HEL cells assessed as inhibition of plaque formation; type: functional, organism-based; settings: Human alphaherpesvirus 3, OKA
[15] = tested on: Human alphaherpesvirus 3; assay: Antiviral activity against TK- VZV 07-1 in HEL cells assessed as inhibition of plaque formation; type: functional, organism-based; settings: Human alphaherpesvirus 3, 07-1, HEL
[16] = tested on: Human betaherpesvirus 5; type: functional, organism-based; settings: Human betaherpesvirus 5, AD169, HEL
[17] = tested on: Human betaherpesvirus 5; type: functional, organism-based; settings: Human betaherpesvirus 5, Davis, HEL
[18] = tested on: Vaccinia virus; type: functional, organism-based; settings: Orthopoxvirus vaccinia, Lederle, HEL
[19] = Cytotoxicity against HEL cells assessed as alteration in cell morphology after 3 days; type: cell-based; settings: human, read-out: Activity
[20] = Cytotoxicity against HSB2 cells assessed as alteration in cell morphology; type: cell-based, CCRF-HSB-2; settings: human, read-out: Activity
[21] = tested on: HEL; assay: Cytotoxicity against HEL cells assessed as inhibition of cell growth after 3 days; type: cell-based; settings: human, 72 h
[22] = tested on: Human immunodeficiency virus 1; type: functional, organism-based; settings: Human immunodeficiency virus 1, 3B, CCRF-CEM
[23] = tested on: Human immunodeficiency virus 2; type: functional, organism-based; settings: Human immunodeficiency virus 2, ROD, CCRF-CEM
[24] = tested on: Moloney murine sarcoma virus; assay: Antiviral activity against MSV in mouse C3H cells assessed as inhibition of virus-induced transformation after 6 days; type: functional, organism-based; settings: 144 h
[25] = tested on: Coxsackievirus B4; type: functional, organism-based; settings: Enterovirus B, HeLa
[26] = tested on: Coxsackievirus B4; type: functional, organism-based; settings: Enterovirus B, Vero
[27] = tested on: Respiratory syncytial virus; type: functional, organism-based; settings: human respiratory syncytial virus, Long, HeLa
[28] = tested on: Human respirovirus 3; type: functional, organism-based; settings: Human respirovirus 3, Vero
[29] = tested on: Mammalian orthoreovirus 1; type: functional, organism-based; settings: Mammalian orthoreovirus 1, Vero
[30] = tested on: Sindbis virus; type: functional, organism-based; settings: Vero
[31] = tested on: Vesicular stomatitis virus; assay: microbe, parasite or virus in culture; settings: E6SM
[32] = tested on: Vesicular stomatitis virus; assay: microbe, parasite or virus in culture; settings: HeLa
[33] = tested on: Human adenovirus 2; type: functional, organism-based; settings: Human mastadenovirus C, HEL

| SMILES | EC50 [1] | MCC [4] | MCC [5] | MCC [6] | MCC [7] | EC50 [10] | EC50 [11] | EC50 [13] | MCC at 72 h [19] | Activity [21] | EC50 [22] | EC50 [23] | EC50 [24] | EC50 [25] | EC50 [26] | EC50 [27] | EC50 [28] | EC50 [29] | EC50 [30] | EC50 [32] | also measured |
| --- | --- | --- | --- | --- | --- | --- | --- | --- | --- | --- | --- | --- | --- | --- | --- | --- | --- | --- | --- | --- | --- |
| Nc1ncn(C[C@@H](CO)OCP(=O)(O)O)c(=O)n1 | > 80 µg/mL | > 400 µg/mL | > 400 µg/mL | 400 µg/mL | 20 µg/mL | 0.077 µg/mL (≈ 0.275 µM) | 0.24 µg/mL (≈ 0.857 µM) | 0.35 µg/mL (≈ 1.25 µM) | > 50 µg/mL | >= 140 ug ml-1 | > 100 µg/mL | > 100 µg/mL | 22 µg/mL (≈ 78.5 µM) | > 400 µg/mL | > 80 µg/mL | > 400 µg/mL | > 80 µg/mL | > 80 µg/mL | > 80 µg/mL | > 400 µg/mL | EC50 [2]: > 100 µg/mL; EC50 [3]: > 50 µg/mL; CC50 [8]: 28 µg/mL (≈ 99.9 µM); CC50 [9]: > 50 µg/mL; EC50 [12]: 0.25 µg/mL (≈ 0.892 µM); EC50 [14]: 0.027 µg/mL (≈ 0.0964 µM); EC50 [15]: 0.019 µg/mL (≈ 0.0678 µM); EC50 [16]: 0.078 µg/mL (≈ 0.278 µM); EC50 [17]: 0.054 µg/mL (≈ 0.193 µM); EC50 [18]: 2.56 µg/mL (≈ 9.14 µM); MCC [20]: 16 µg/mL; EC50 [31]: > 400 µg/mL |
| O=c1[nH]c(=O)n([C@H]2C[C@H](O)[C@@H](CO)O2)cc1/C=C/Br [BRIVUDINE] | > 400 µg/mL | > 400 µg/mL | > 400 µg/mL | > 400 µg/mL | > 100 µg/mL | 0.0025 µg/mL (≈ 0.0075 µM) | > 20 µg/mL | – | > 100 µg/mL | >= 100 ug ml-1 | > 100 µg/mL | > 100 µg/mL | > 100 µg/mL | > 400 µg/mL | > 400 µg/mL | > 400 µg/mL | > 400 µg/mL | > 400 µg/mL | > 400 µg/mL | > 400 µg/mL | EC50 [14]: 0.0069 µg/mL (≈ 0.0207 µM); EC50 [15]: ≥ 122 µg/mL; EC50 [31]: > 400 µg/mL |
| C[C@H](Cn1cnc(N)nc1=O)OCP(=O)(O)O | > 100 µg/mL | > 100 µg/mL | > 100 µg/mL | > 100 µg/mL | > 100 µg/mL | > 100 µg/mL | – | > 100 µg/mL | > 50 µg/mL | > 50 µg/mL | > 100 µg/mL | > 100 µg/mL | > 100 µg/mL | > 100 µg/mL | > 100 µg/mL | > 100 µg/mL | > 100 µg/mL | > 100 µg/mL | > 100 µg/mL | > 100 µg/mL | CC50 [8]: > 100 µg/mL; EC50 [14]: > 100 µg/mL; EC50 [15]: > 100 µg/mL; EC50 [16]: > 100 µg/mL; EC50 [17]: > 100 µg/mL; EC50 [18]: > 100 µg/mL; EC50 [31]: > 100 µg/mL |
| Nc1ncnc2c1ncn2C[C@H](O)CO [(S)-DHPA] | 48 µg/mL (≈ 229 µM) | > 400 µg/mL | > 400 µg/mL | > 400 µg/mL | > 100 µg/mL | – | – | – | – | – | > 100 µg/mL | > 100 µg/mL | > 100 µg/mL | > 400 µg/mL | 240 µg/mL (≈ 1150 µM) | > 400 µg/mL | 48 µg/mL (≈ 229 µM) | 48 µg/mL (≈ 229 µM) | 240 µg/mL (≈ 1150 µM) | 400 µg/mL (≈ 1910 µM) | – |
| NC(=NC(=O)NC[C@@H](CO)OCP(=O)(O)O)NC=O | > 100 µg/mL | > 100 µg/mL | > 100 µg/mL | > 100 µg/mL | > 100 µg/mL | 1.35 µg/mL (≈ 4.53 µM) | 2.85 µg/mL (≈ 9.56 µM) | 6.58 µg/mL (≈ 22.1 µM) | > 50 µg/mL | > 50 µg/mL | > 100 µg/mL | > 100 µg/mL | 130 µg/mL (≈ 436 µM) | > 100 µg/mL | > 100 µg/mL | > 100 µg/mL | > 100 µg/mL | > 100 µg/mL | > 100 µg/mL | > 100 µg/mL | CC50 [8]: ≥ 100 µg/mL; EC50 [12]: 3.16 µg/mL (≈ 10.6 µM); EC50 [14]: 0.042 µg/mL (≈ 0.141 µM); EC50 [15]: 0.046 µg/mL (≈ 0.154 µM); EC50 [16]: 0.1 µg/mL (≈ 0.335 µM); EC50 [17]: 0.12 µg/mL (≈ 0.402 µM); EC50 [33]: 17.8 µg/mL (≈ 59.7 µM); EC50 [18]: 8.35 µg/mL (≈ 28 µM); MCC [20]: ≥ 200 µg/mL; EC50 [31]: > 100 µg/mL |
| Nc1nc2c(ncn2COCCO)c(=O)[nH]1 [ACYCLOVIR] | – | – | – | – | – | 0.015 µg/mL (≈ 0.0666 µM) | > 20 µg/mL | 0.048 µg/mL (≈ 0.213 µM) | > 100 µg/mL | 173.5 µg/mL | – | – | – | – | – | – | – | – | – | – | – |
| Nc1ncn(C[C@H](CO)OCP(=O)(O)O)c(=O)n1 | > 200 µg/mL | > 200 µg/mL | > 200 µg/mL | > 200 µg/mL | > 100 µg/mL | 11.8 µg/mL (≈ 42.1 µM) | 17.8 µg/mL (≈ 63.5 µM) | 12.6 µg/mL (≈ 45 µM) | > 100 µg/mL | > 100 µg/mL | > 100 µg/mL | > 100 µg/mL | > 100 µg/mL | > 200 µg/mL | > 200 µg/mL | > 200 µg/mL | > 200 µg/mL | > 200 µg/mL | > 200 µg/mL | > 200 µg/mL | CC50 [8]: > 100 µg/mL; CC50 [9]: > 50 µg/mL; EC50 [12]: 14.8 µg/mL (≈ 52.8 µM); EC50 [14]: 13.8 µg/mL (≈ 49.3 µM); EC50 [16]: 7.3 µg/mL (≈ 26.1 µM); EC50 [17]: 8.9 µg/mL (≈ 31.8 µM); EC50 [18]: ≥ 81.6 µg/mL; EC50 [31]: > 200 µg/mL |
